These results are taken from US11241441B2, “Formulations of lixivaptan for the treatment of polycystic disease” (PALLADIO BIOSCIENCES, INC., priority 2017, dated 2022).

The structures appear in SMILES notation.

Data set [1] in a line: Measured Log P. It counts as physicochemical.
For data set [2] the following is noted: 90/30 mg split daily dosing; cited from earlier work.
The conditions of data set [3]: Shoaf, 2013; cited from earlier work.

In the case of `Cc1ccccc1C(=O)Nc1ccc(C(=O)N2CCCC(O)c3cc(Cl)ccc32)c(C)c1` (stereo not drawn) [tolvaptan], in data set [1], the logP – broadly, a log measure of how a compound divides between an organic and an aqueous phase – was above 3. Besides, the “individuals with ALT elevations (reported by Woodhead)” value in data set [2] is recorded as “approximately 8%”. Further, the “exposure in subjects with impaired renal function compared to healthy individuals” value in data set [3] is given as “increased exposure”.
